The source of these data is US20050032841A1, “Therapeutic compositions and methods of treating glycolipid storage related disorders” (priority 1999, published 2005).

Where “and” joins values, the source holds several entries; their conditions need not be identical. Equal entries are not always repeated.

Data set [1] concerns GSL synthesis. The note with it: compared with NB-DNJ; cited from earlier work.
Data set [2] deals with α-glucosidase I and II. The note with it: cited from earlier work.
The nature of data set [3]: Serum enzyme activity and half life of Ceredase after i.v. injection in mice, with or without NB-DNJ pre-treatment. The data set is classed as in vivo. Details: unit not given here. The note with it: mice treated with NB-DNJ 4800 mg/kg/day for 5 weeks. The procedure: A group of mice were treated with NB-DNJ at 4800 mg/kg/day for 5 weeks. After a low intravenous dose (5-10 U/kg) of Ceredase™ (Genzyme Corporation) administered as a single injection via the tail vein, serum enzyme activity was measured by taking sequential serum samples from the tail vein to monitor enzyme activity over time. Ceredase™ is a modified form of β glucocerebrosidase.

For data set [4], the system named is Sandhoff mice. As to the kind of experiment: Survival of Sandhoff mice treated with NB-DNJ and/or bone marrow transplantation. The class given is in vivo. The note with it: BMT at two weeks of age, NB-DNJ 600 mg/kg/day from 9.5-11 weeks of age.
Data set [5] concerns MPS IIIA mice. Kind of data set: Murine model of MPS IIIA: brain immunocytochemistry (GM2, GM3) and auto-fluorescent material. The data set is classed as in vivo. The source says: Colonies of mutant mice expressing the MPS IIIA phenotype have been described, and have been validated by a number of criteria as an authentic model of the disease (Stanley, P et al (1999) Glycobiology 9: 1389-1396). MPS IIIA mice display clinical signs of the disease around 6 months of age with decreased activity, scruffy coat, abdominal distention, hunched posture and waddling gait. […] Death results by 18 months or less.
The brains of MPS mice are grossly normal. […] White matter and Purkinje cells display axonal spheroids. Anti-heparan sulfate immunostaining indicates accumulation of heparan sulfate fragments in the cerebral cortex of MPS IIIA animals.
MPS IIIA mice were treated with 1200 mg/kg/day, beginning at 4 weeks of age, with NB-DNJ. Brain samples from animals were taken at 8 weeks of age (4 weeks of treatment with NB-DNJ) and subjected to immunocytochemistry with an anti-GM2 ganglioside-specific monoclonal antibody. […] Upper cortex, ii. Lower cortex; B: NB-DNJ Treated, i. Upper cortex, ii. Lower cortex.
The hippocampus (CA4-Dentate Gyrus) of the MPS IIIA animals was also examined for staining by a GM2 Ganglioside-specific monoclonal antibody.
Cerebral cortex samples from animals were also taken at 40 weeks of age (36 weeks of treatment with NB-DNJ) and subjected to immunocytochemistry with an anti-GM3 ganglioside-specific monoclonal antibody. Anti-GM2 staining was similar to anti-GM3 staining in both treated and untreated animals, respectively (data not shown).
The brains of animals affected by MPS IIIA, as well as some other of the mucopolysaccharidoses, store heterogeneous auto-fluorescent material in addition to glycolipids. Thus, the cerebral cortex of MPS IIIA animals either left untreated or treated for 36 weeks with NB-DNJ were also examined for the presence of auto-fluorescent material.

The subject of data set [6] is in vitro model of Gaucher disease. The note with it: cited from earlier work.
Data set [7] concerns mouse model of Tay-Sachs disease. The settings on record: asymptomatic Tay-Sachs mouse model; cited from earlier work.

Regarding `CCCCN1C[C@H](O)[C@@H](O)[C@@H](O)[C@H]1CO` [NB-DGJ, N-butyldeoxygalactonojirimycin], in data set [1], the “Inhibition of GSL synthesis in vitro” value is given as “as effectively as NB-DNJ”. In addition, the “Inhibition of α-glucosidase I and II” value in data set [2] is given as “does not inhibit”.
`CCCCN1C[C@H](O)[C@@H](O)[C@H](O)[C@H]1CO` [NB-DNJ, N-butyldeoxynojirimycin]: in data set [3] (Ceredase 5-10 U/kg i.v., group mean), the “Peak Activity of Ceredase in serum, mean ± sem” value was determined as 27.4 ± 7.2. Moreover, the “Peak Activity of Ceredase in serum” value in data set [3] (Ceredase 5-10 U/kg single i.v. injection, individual mice) was 13.9 and 32.1 and 24.1 and 13.1 and 21.0 and 68.3 and 19.2. The “Survival (longest survivor)” value in data set [4] is listed as 170 days. For the same compound, the “Pathological features in the model of MPS IIIA” value in data set [5] (NB-DNJ 1200 mg/kg/day) is given as “markedly reduces the pathological features”. For the same compound, the “Glycolipid storage in neuronal cells” value in data set [5] (NB-DNJ 1200 mg/kg/day from 4 weeks of age, anti-GM2/GM3 immunocytochemistry) is reported as “markedly reduced”. For the same compound, the “Storage of auto-fluorescent material in cerebral cortex” value in data set [5] (NB-DNJ 1200 mg/kg/day, 36 weeks of treatment) was “reduced the storage of auto-fluorescent material”. The “Storage in in vitro model of Gaucher disease” value in data set [6] is given as “shown to prevent storage”. In addition, the “GM2 accumulation in the brain and associated neuropathology” value in data set [7] was “reduce GM2 accumulation in the brain and prevent the neuropathology”.
